{"source": "patent US7833795B2", "about": "“Assessment of cardiovascular risk using isoprostane biomarkers and COX-2 selective inhibitors” (The Trustees of the University of Pennsylvania, priority 2004, dated 2010)", "key": {"COX-1": {"target": "COX-1 (Homo sapiens, UniProt P23219)", "sequence (P23219 24-599)": "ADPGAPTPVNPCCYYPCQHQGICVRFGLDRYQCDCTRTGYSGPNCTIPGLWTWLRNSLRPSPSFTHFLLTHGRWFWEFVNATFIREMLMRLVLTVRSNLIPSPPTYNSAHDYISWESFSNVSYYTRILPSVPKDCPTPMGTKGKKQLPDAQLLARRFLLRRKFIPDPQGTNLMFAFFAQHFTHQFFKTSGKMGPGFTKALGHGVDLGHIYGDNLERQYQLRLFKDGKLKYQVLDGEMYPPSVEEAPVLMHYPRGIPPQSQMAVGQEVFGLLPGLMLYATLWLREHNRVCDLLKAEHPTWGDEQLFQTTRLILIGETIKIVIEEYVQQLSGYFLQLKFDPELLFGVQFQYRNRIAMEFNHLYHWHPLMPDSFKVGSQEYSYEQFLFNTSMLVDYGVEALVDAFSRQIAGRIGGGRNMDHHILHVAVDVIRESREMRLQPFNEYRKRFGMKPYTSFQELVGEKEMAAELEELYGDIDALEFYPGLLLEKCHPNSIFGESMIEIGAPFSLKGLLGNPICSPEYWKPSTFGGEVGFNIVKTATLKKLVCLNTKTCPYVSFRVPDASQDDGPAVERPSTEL", "conditions": "in vivo", "experimental": "(§1) Study Design: This randomized, double-blind, placebo-controlled protocol was approved by the Institutional Review Board of the University of Pennsylvania Health System and by the Advisory Council of the General Clinical Research Center (University of Pennsylvania, Philadelphia). Written informed consent was obtained from all study volunteers. […] Routine hematology, biochemistry, and urinalysis were assessed at time of screening and at 24 hours after administration of the drugs on completion of the study.\n(§2) Measurements were performed immediately before the administration of drug (0 hrs) and 4 hours thereafter. […] A subset of the volunteers (n=5) progressed through the entire protocol on five occasions, each separated by two weeks, to assess intraindividual variability in drug response in five replicates.\n(§3) Statistical analysis: The primary response variables were: i) ex vivo COX-2 inhibition, expressed as the ratio of postdrug to predrug plasma PGE2; ii) ex vivo COX-1 inhibition, expressed as the ratio of postdrug to predrug serum TxB2; iii) urinary PGI-M inhibition, expressed as the ratio of concentration post drug to post placebo administration; iv) urinary Tx-M inhibition, expressed as the ratio of concentration post drug to post placebo administration; and v) plasma drug concentrations four hours post drug administration. […]"}, "COX-2": {"target": "COX-2 (Homo sapiens, UniProt P35354)", "sequence (P35354 18-604)": "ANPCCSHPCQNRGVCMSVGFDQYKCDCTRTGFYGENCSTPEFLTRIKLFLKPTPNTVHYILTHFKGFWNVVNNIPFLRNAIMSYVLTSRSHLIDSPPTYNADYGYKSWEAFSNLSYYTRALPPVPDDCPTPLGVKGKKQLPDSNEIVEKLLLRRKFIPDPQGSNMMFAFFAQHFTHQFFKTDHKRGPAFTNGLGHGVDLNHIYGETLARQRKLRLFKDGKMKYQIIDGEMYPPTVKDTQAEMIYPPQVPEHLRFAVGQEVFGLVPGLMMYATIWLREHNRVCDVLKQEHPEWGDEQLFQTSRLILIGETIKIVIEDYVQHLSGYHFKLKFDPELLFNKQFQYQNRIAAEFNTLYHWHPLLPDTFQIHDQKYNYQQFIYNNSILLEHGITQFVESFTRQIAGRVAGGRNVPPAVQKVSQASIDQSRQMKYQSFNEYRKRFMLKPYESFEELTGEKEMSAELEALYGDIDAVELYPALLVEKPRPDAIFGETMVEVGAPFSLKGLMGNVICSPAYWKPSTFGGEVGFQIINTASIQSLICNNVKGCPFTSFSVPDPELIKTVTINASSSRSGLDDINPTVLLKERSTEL", "conditions": "in vivo", "experimental": "as §1, §2, §3"}, "PGI2 biosynthesis": {"test_system": "PGI2 biosynthesis", "assay": "Urinary 2,3-dinor-6-keto PGF1α (PGI-M) in volunteers", "assay_type": "in vivo, human", "conditions": "single dose (rofecoxib 25 mg, celecoxib 200 mg), 4 hours", "text": "(§4) Written informed consent was obtained from all study volunteers.\n(§5) The coefficients of variation for both assays were <10%.\n(§6) All variables were log transformed to approximate normality. Three extreme outlying datapoints were removed."}, "TxA2 formation": {"test_system": "TxA2 formation", "assay": "Urinary 11-dehydro TxB2 (Tx-M) in volunteers", "assay_type": "in vivo, human", "text": "as §4, §5, §6"}, "[1]": {"assay": "Plasma drug concentrations by LC tandem MS", "assay_type": "in vivo, human", "conditions": "for concentration at 4 h: human, plasma, 4 hours after dosing, single dose (rofecoxib 25 mg, celecoxib 200 mg)"}, "[2]": {"conditions": "patients receiving rofecoxib (25 mg/day), as early as one month; cited from earlier work"}}, "note": "Like-named read-outs stand apart in the source and are kept apart here.", "data": [{"compound": "CS(=O)(=O)c1ccc(C2=C(c3ccccc3)C(=O)OC2)cc1", "note": "[rofecoxib]", "values": [{"measurement": "COX-1 derived serum TxB2", "setting": "COX-1", "result": "failed to inhibit significantly"}, {"measurement": "degree of inhibition of COX-2 dependent PGE2 formation ex vivo", "setting": "COX-2", "result": 44.8, "unit": "%"}, {"measurement": "urinary PGI-M compared to placebo", "setting": "PGI2 biosynthesis", "result": "depressed urinary PGI-M"}, {"measurement": "COX-1 inhibition in vivo (urinary Tx-M) in Pro17Leu variant of COX-1", "setting": "TxA2 formation; rofecoxib 25 mg", "result": "absence of COX-1 inhibition in vivo"}, {"measurement": "excretion of urinary Tx-M compared to placebo", "setting": "TxA2 formation; single dose (rofecoxib 25 mg, celecoxib 200 mg), 4 hours", "result": "not excretion of urinary Tx-M"}, {"measurement": "concentration at 4 h", "setting": "[1]; read-out: plasma drug concentration, median", "result": 215, "unit": "ng/mL"}, {"measurement": "concentration at 4 h", "setting": "[1]; read-out: plasma drug concentration, range", "result": "115 to 658", "unit": "ng/mL"}, {"measurement": "drop in plasma concentration per unit increase in BMI", "setting": "[1]; rofecoxib 25 mg, 4 hours", "result": "about 2%"}, {"measurement": "elevation of blood pressure", "setting": "[2]", "result": "3-4 mm Hg"}]}]}
